According to patent US20250352654A1, “PHARMACEUTICAL AGENT CONJUGATES TO MODULATE MACROPHAGE AND INFLAMMATORY FUNCTIONS AND USES THEREOF” (REGENTS OF THE UNIVERSITY OF MINNESOTA, priority 2022, published 2025):
Bridge positions count the residues as written; N and C are the ends. Peptide text beside a SMILES is read from it. * marks the point of attachment. 5FAM = O=C1OC2(c3ccc(O)cc3Oc3cc(O)ccc32)c2ccc(C(=O)*)cc21; Ahx = NCCCCCC(=O)O

How the values were obtained:
[1] = test system: inflamed synovium of the arthritic joints; assay: FAM-CRV homing in CIA mice (IHC/IF); assay type: in vivo, mouse; details: i.v., 1 h, IHC
Protocol: FIGS. 7B-7D illustrates In vivo CRV peptide distribution in arthritic mouse models. (B) Scheme of synthesis of 64Cu-DOTA-CRV. (C) Representative immunohistochemistry (IHC) images of peptide accumulation in the tissues of collagen-induced-arthritis (CIA) mice with anti-FITC antibody for FAM-labeled CRV and FAM-GGS, upon intravenous injection for 1 h, respectively. Scale bars: 100 μm. (D) Representative IHC images of CRV-peptide and a control peptide (GGS) accumulation in the ankle joints of K/B×N serum-transfer arthritic mice at 1 h post intravenous injection as detected by FAM signals with anti-FITC antibody. Scale bar: 200 μm for 10× magnification; 100 μm for 20× magnification. All the animal experiments were performed in 3 mice per group. DOTA, 1,4,7,10-tetraazacyclododocane tetraacetic acid; FAM, carboxyfluorescein; FITC, fluorescein isothiocyanate.
FIG. 8A-8G CRV targets the inflamed synovium of the arthritic joints. (A) Scheme of the establishment of collagen-induced arthritis (CIA) model. (B) In vivo PET/CT images of 64Cu-DOTA and 64Cu-DOTA-CRV accumulation at the joints of mice with CIA. […] (C) Quantification of 64Cu-DOTA or 64Cu-DOTA-CRV uptake at the knees and ankles by analyzing PET data of the region of interest (ROI). […] (E) Representative IHC images of CRV-peptide accumulation in the knee joint as detected by FAM signals with anti-FITC antibody. […]

[2] = Long-term toxicity of DEX conjugates in healthy mice; assay type: in vivo, mouse; details: 2 mg kg-1 DEX equivalent, daily i.v. for 2 weeks
Protocol: (§1) (A) Quantification of immunofluorescent signals (Top) and representative immunofluorescent images (bottom) of TUNEL-positive cells showing apoptotic cells in tissues of mice receiving short-term treatments. (B-C) Plasma levels of liver enzymes alanine transaminase (ALT) and (F) aspartate transaminase (AST). […] Thymus and spleen weight in mice receiving long-term treatments.
(§2) The TUNEL staining was performed using an In Situ Cell Death Detection Kit (Roche Diagnostics GmbH, Mannheim, Germany). The paraffin sections were stained with TUNEL reaction mixture for 1 h at 37° C. followed by Hoechst staining for nucleus. The images were captured by using fluorescence microscopy EVOS M5000 and the fluorescence intensity of TUNEL positive cells was evaluated by ImageJ software for semi-quantification.
(§3) The aminotransferase quantification was performed to determine toxicity effect of different formulations of PSL on the liver. Blood samples were collected by cardiac puncture after the treatment. The levels of aspartate aminotransferase (AST) and alanine aminotransferase (ALT) in plasma were measured using assay kits from Stanbio (Boerne, TX).
(§4) Additionally, we examined the commonly seen systemic side effects including the reduced thymus and spleen weight due to increased apoptosis after a short-term low dose and a long-term glucocorticoid usage.

[3] = In vivo pharmacokinetics of DEX conjugates; details: male, DBA/1J, mouse, plasma, iv, 1 mg kg^-1 (DEX equivalent); healthy mice; mean ± SD (n = 3)
Protocol: All the animal experiments were performed on 3 mice per group. The data are presented as the mean±standard deviation (SD). […] All the animal experiments were performed on 3 mice per group. The data are presented as the mean±standard deviation (SD). Statistical significance was calculated using Student's t test. *P<0.05, **P<0.01 between groups. […] ND, not determined.
HPLC-MS/MS analysis was performed using the chromatographic system consisting of UltiMate 3000 RSLCnano System (Thermo Fisher Scientific) and a ZORBAX C18 column (5 μm, 150 mm 0.5 mm, Agilent, Santa Clara, CA). The mobile phase was a mixture of H2O/acetonitrile with a gradient elution (from 90:10 to 10:90 and return to 90:10, v/v) at a flow rate of 15 μl/min. The eluent was introduced directly into the electrospray source of a tandem quadrupole mass spectrometer (TSQ VANTAGE, Thermo Fisher Scientific) that was operated in the positive mode. The spray voltage was set at 3000 V. The compounds were analyzed by multiple reaction monitoring (MRM) of the transitions of m/z (ESI+) 361.24→147.06 for PSL.
Healthy DBA/1J male mice at age of 8-9 weeks were deprived of food overnight with free access to water. […] Approximately 20 IL of blood was collected via facial vein at 5, 15, 30, 60 min and, 2, 6, 12, 24, and 48 h, and plasma were obtained by centrifugation at 500×g for 10 min. […]

[4] = DEX-PEG conjugations with different PEG lengths in obese mice with ALI; assay type: in vivo, mouse; details: 0.1 mg/kg DEX equivalent i.v. every other day for 3 weeks
Protocol: (A) Body weight of mice in each treatment group. (B) Blood glucose of mice during the ITT experiment. Mice were fasted for 6 hours, and […] of insulin was administered via intraperitoneal (i.p.) injection. The blood glucose levels were measured using Clarity BG1000 Blood Glucose Meter Strips at 0, 15, 30, 60, 90, and 120 minutes after the injection. (C) Thymus weight of mice in each group at the end of the study. Triglycerides (D), total cholesterol (E) and non-HDL cholesterol (F) in mice plasma were quantified by LiquiColor® Test (Enzymatic) Kit. Error bars indicate S.E.M., n=4. *p<0.05 and **p<0.01 (Student's t-test).
Liver was collected, fixed and sectioned. H&E staining was carried out according to the standard protocol. Scale bar, […] for all images.
Male C57 mice were subjected to high-fat diet feeding for 8 weeks to induce obesity. An acute lung injury (ALI) model was established in the obesity mice by administering 30 μg of LPS intratracheally per mouse.
In addition, lean mice and obese mice without ALI were included in the study as controls and received no treatment. Body weight of the mice was monitored every other day during the study. One day prior to sacrificing the mice, an insulin tolerance test (ITT) was conducted. Blood and major organs were collected at the end of the study, and plasma triglycerides, total and non-HDL cholesterol were quantified. The organs were weighed and sectioned for H&E staining.

[5] = Short-term side effects of DEX conjugates in CIA mice; assay type: in vivo, mouse; details: 0.01 mg kg-1 DEX equivalent i.v. every two days for one week
Protocol: as §1, §2, §3, §4

SMILES	peptide accumulation in other organs [1]	apoptosis in thymus and spleen (TUNEL), long-term [2]	thymus and spleen weight, long-term [2]	AUC(0-t) [3]	Thymus weight [4]	body weights or blood glucose [4]	triglycerides in the plasma [4]	apoptosis in tissues (TUNEL), short-term [5]
CC(C)C[C@@H]1NC(=O)[C@H](C(C)C)NC(=O)[C@H](CCCNC(=N)N)NC(=O)[C@@H](NC(=O)CCCCCNC(=O)c2ccc3c(c2)C(=O)OC32c3ccc(O)cc3Oc3cc(O)ccc32)CSSC[C@@H](C(=O)O)NC(=O)[C@H](CO)NC(=O)CNC(=O)[C@H](CO)NC(=O)[C@H](CCCNC(=N)N)NC1=O [CRV] ({5FAM-Ahx}-CRVLRSGSC-OH; disulfide 1-9)	some accumulation of CRV in the liver and kidney, while no or much less in other organs	–	–	–	–	–	–	–
C[C@@H]1C[C@H]2[C@@H]3CCC4=CC(=O)C=C[C@]4(C)[C@@]3(F)[C@@H](O)C[C@]2(C)[C@@]1(O)C(=O)CO [DEX, dexamethasone]	–	increased apoptosis in thymus and spleen	most significant weight loss of thymus and spleen	23.2 ± 5.14 ng·h/mL	reduces thymus weight	no change	elevates the blood triglyceride	increases the level of apoptosis mainly in the thymus
